From patent EP2803317B1, “MRI METHOD FOR MEASURING DIFFUSION PARAMETERS OF TRACER IN LIVING ORGAN TISSUE SPACE AND EXTRACELLULAR SPACE” (Peking University Third Hospital, priority 2012, dated 2013)

Tests used:
[1] = MRI tracer method: distribution volume and macro clearance of Gd-DTPA in the skeletal muscle gap; format: in vivo; details: rat skeletal muscle gap
Source text: (§1) Calculation method about distribution volume (Vd), distribution volume fraction and general clearance of the tracer in the living organism is as follows: reconstructing the registered and subtracted images into axial images; quantitative measuring the signal increment region in image of each layer via the Matlab program as shown in figures; and recording the number of pixels in the increment region and the signal intensity value of each pixel. According to the integral principle, we can obtain the distribution volumes (Vd) of the tracer (Gd-DTPA) from different times in the brain hemisphere ECS via adding up the increment region of each layer. The distribution volume fraction of Gd-DTPA in the brain hemisphere ECS can be obtained by dividing the Vd from different times by the volume of the brain hemisphere of the rat. The macro clearance is defined as the total signal intensity at a previous time subtracting the total signal intensity at a later time, then dividing the initial total signal intensity.
(§2) Although the above invention is for the brain ECS of the SD rat, the present invention is applicable to other the living organisms. […] The left high signal region adjacent to the femur is the Gd-DTPA's diffusion region after injection.

[2] = MRI tracer method: distribution volume, distribution volume fraction and macro clearance of Gd-DTPA in brain hemisphere ECS after injection in caudate nucleus; format: in vivo, SD rats; details: for Macro clearance: injection to the caudate nucleus of eight SD rats; for Distribution Volume Fraction: rat brain hemisphere; for Distribution Volume Fraction / Distribution Volume (Vd): after injection in caudate nucleus; for Distribution Volume (Vd): rat brain
Method: (§3) A method for computing the physiological parameter in the living organism will be illustrated with the following embodiment. In the embodiment, Gadolinium-diethylenetriaminepentaacetic acid (Gd-DTPA) which is Mag-nevist solution produced by Bayer Schering Pharma AG was used as the tracer. The corresponding MRI signal intensities of the tracer with the actual concentration in agarose gel and rat brain were measured. Male Sprague Dawley rats weighing 250-300g were used in the experiment. The living organism used for measurement is the rat brain. A Siemens Magnetom Trio 3.0 T MRI system was used to obtain the rat brain images.
(§4) In this embodiment, the position of the injection site Q and the depth of Gd-DTPA microinjection of the rat brains were determined by three-dimensional reconstructed image basing on the brain stereotaxic atlas. The specific method was: preparing skin, shaving between the eyes of rats about 4cm skin backwards along the midline of the skull and exposing the skull plate; then fixing the rats in a stereotactic apparatus and administrating the drug at the injection site Q using magnetic drug delivery system; rubbing off the skull plate at the entry point with an electric drill, setting a micro syringe into the brain and manually administrating 2µLGd-DTPA solution with the concentration of 10mM into the target location in three injection with the interval of 5min. The syringe was left for 10 min in the brain when drug injection was finished before the micro syringe was exited and the skin was sutured. Scanned images were taken in 15min, 30min, 1h, 2h, 3h, 4h, 6h, 9h and 12h and imaging parameters were set as the mentioned above.
as §1
The selected region in the FIG. is obtained by subtracting the image before increment from the increment image. The increment region is shown as the "bright region" and the other un-increment region is shown as the "dark region". […] Using the bulleted method above can measure the Vd, the distribution volume fraction and the macro clearance of the caudate nucleus.

[3] = MRI tracer method: diffusion parameters of Gd-DTPA in the glioma brain; format: in vivo; details: glioma brain of the rat
Source text: Table 8: the diffusion parameter of Gd-DTPA in the glioma brain of the rat

[4] = MRI tracer method: distribution volume, distribution volume fraction and macro clearance of Gd-DTPA in the glioma brain; format: in vivo; details: glioma brain of the rat
Source text: as §1
Using the same method as used in the brain ECS, we can learn the time-varying change rule of distribution volume of the Gd-DTPA in the glioma brain of the rat. Table 9: the time-varying change rule of distribution volume of the Gd-DTPA in the glioma brain of the rat

[5] = MRI tracer method: diffusion parameters of Gd-DTPA in brain ECS of SD rats, fitted from time-series MRI images; format: in vivo; details: for λ: tortuosity
Method: as §3, §4
As shown in the FIG., the bias field is first to be correct to eliminate the signal strength deviation among the sequence of images; the image registration technique is then used to unify the position of the increment images with the referenced images; the diffusion model is finally solved via the distribution of the tracer concentration from different times obtained by the analysis of the signal strength increment.
Although the tortuosity varies in different directions and remains unchanged in the same direction in equation (5), the real tortuosity probably varies in the same direction. The space variability of the tortuosity should be determined to accurately describe the real diffusion process. The tortuosity of a point (x, y, z) in space is: λ = λ(x, y, z) [formula] or written in a polar coordinates: λ = λ(r, θ, φ) [formula] the diffusion model is changed to: (∂C)/(∂t) = (D)/(λ((x, y, z))^2)(∇)^2 C−(Q)/(α)−k′C [formula]
Although equation (10) fully considers the space variability of the tortuosity, the solution of equation (8) is difficult to get. The equation (8) is a partial differential formula with variable coefficients and usually has no analytic solution. The continuous problem can be turned into a discrete problem to solve the equation (10): ΔSI(t+Δt)−ΔSI(t) = (D)/(λ((x, y, z))^2)(∇)^2 (ΔSI) + (Q)/(α)k−k′ΔSI(t) + k′b [formula] wherein, Δt is the sampling time in each unit, [formula] Δi represents the space distance of sampling along the axis i. It depends on the space resolution of the image along the axis i.
For the discrete equation (11), the space tortuosity λ, the loss ratio k' and the part volume ratio α can be fit by the least squares method, i.e. the solution of the below optimization problem is required: [formula]
Write the equation (12) in a matrix form and get: min f(λ,α,k′) = ‖Ax−b‖2^2 [formula] wherein, the nonvanishing element in the line (x, y, z, t,:) of the matrix A is : ((∂)^2 ΔSI)/((∂)^2 r) + k−ΔSI + b [formula] the line (x, y, Z, t,) of the known vector b is: b(x,y,z,t,:) = ΔSI(t+Δt)−ΔSI(t) [formula] the substitution variable x is: x = ([(D)/(λ((x, y, z))^2),(Q)/(α),k′])^T [formula] […]

[6] = MRI tracer method: diffusion parameters of Gd-DTPA in the skeletal muscle gap; format: in vivo; details: rat skeletal muscle gap
Source text: as §2

[7] = SD rat brain, caudate putamen (CPu), Gd-DTPA 2µL, 10mM microinjection
[8] = SD rat brain, medial prefrontal cortex (mPFC), Gd-DTPA 2µL, 10mM microinjection
[9] = SD rat brain, occipital cortex (Oc), Gd-DTPA 2µL, 10mM microinjection
[10] = SD rat brain, substantianigra (SN), Gd-DTPA 2µL, 10mM microinjection
[11] = SD rat brain, thalamus (T), Gd-DTPA 2µL, 10mM microinjection
[12] = rats' caudate nucleus region, anisotropic, direction -X
[13] = rats' caudate nucleus region, anisotropic, direction -Y
[14] = rats' caudate nucleus region, anisotropic, direction -Z
[15] = rats' caudate nucleus region, anisotropic, direction X
[16] = rats' caudate nucleus region, anisotropic, direction Z

For `O=C([O-])CN(CCN(CC(=O)[O-])CC(=O)O)CCN(CC(=O)[O-])CC(=O)O.[Gd+3]` [Gd-DTPA, Gadolinium-diethylenetriaminepentaacetic acid], the Vd ([1]; time 5 min) was 407 mm^3, the Vd ([1]; time 10 min) was 383 mm^3 and the Vd ([1]; time 15 min) was 234 mm^3. For the same molecule, the Vd ([1]; time 25 min) was 0 mm^3, the Macro clearance ([1]; time(h) 5-10) was 0.28 h⁻¹ and the Macro clearance ([1]; time(h) 10-15) was 0.36 h⁻¹. For the same molecule, the Macro clearance ([1]; time(h) 15-25) was 0.36 h⁻¹, the Macro clearance ([2]; time 1-2 h) was 0.23 h⁻¹ and the Macro clearance ([2]; time 2-3 h) was 0.12 h⁻¹. The Macro clearance ([2]; time 3-4 h) was 0.19 h⁻¹, the Macro clearance ([2]; time 4-6 h) was 0.11 h⁻¹ and the Macro clearance ([2]; time 6-9 h) was 0.06 h⁻¹. For the same molecule, the Macro clearance ([2]; time 9-12 h) was 0.08 h⁻¹, the “Distribution Volume Fraction” value ([2]; time 1 h) was 7.55% and the “Distribution Volume Fraction” value ([2]; time 2 h) was 9.48%. The “Distribution Volume Fraction” value ([2]; time 3 h) was 9.45%, the “Distribution Volume Fraction” value ([2]; time 4 h) was 8.20% and the “Distribution Volume Fraction” value ([2]; time 6 h) was 6.96%. For the same molecule, the “Distribution Volume Fraction” value ([2]; time 9 h) was 4.29%, the “Distribution Volume Fraction” value ([2]; time 12 h) was 1.33% and the “Distribution Volume (Vd)” value ([2]; time 1 h) was 724.75 mm^3. For the same molecule, the “Distribution Volume (Vd)” value ([2]; time 2 h) was 910.50 mm^3, the “Distribution Volume (Vd)” value ([2]; time 3 h) was 907.25 mm^3 and the “Distribution Volume (Vd)” value ([2]; time 4 h) was 787.57 mm^3. For the same molecule, the “Distribution Volume (Vd)” value ([2]; time 6 h) was 668.50 mm^3, the “Distribution Volume (Vd)” value ([2]; time 9 h) was 411.57 mm^3 and the “Distribution Volume (Vd)” value ([2]; time 12 h) was 128.13 mm^3. For the same molecule, the “k'” value ([3]; direction -X) was 3.31 ×10^-4/mM·L^-1·s^-1, the “k'” value ([3]; direction -Y) was 3.12 ×10^-4/mM·L^-1·s^-1 and the “k'” value ([3]; direction -Z) was 3.05 ×10^-4/mM·L^-1·s^-1. The “k'” value ([3]; direction X) was 3.13 ×10^-4/mM·L^-1·s^-1, the “k'” value ([3]; direction Z) was 3.15 ×10^-4/mM·L^-1·s^-1 and the Macro clearances ([4]; time 0.5-1 h) was 0.23 h⁻¹. For the same molecule, the Macro clearances ([4]; time 1-2 h) was 0.36 h⁻¹, the Macro clearances ([4]; time 2-3 h) was 0.41 h⁻¹ and the “Distribution Volume Fraction” value ([4]; time 0.25 h) was 4.85%. The Vd ([4]; time 0.25 h) was 466 mm^3, the “Distribution Volume Fraction” value ([4]; time 0.5 h) was 6.78% and the Vd ([4]; time 0.5 h) was 651 mm^3. For the same molecule, the “Distribution Volume Fraction” value ([4]; time 1 h) was 7.50%, the Vd ([4]; time 1 h) was 720 mm^3 and the “Distribution Volume Fraction” value ([4]; time 2 h) was 5.24%. For the same molecule, the Vd ([4]; time 2 h) was 503 mm^3, the “Distribution Volume Fraction” value ([4]; time 3 h) was 0% and the Vd ([4]; time 3 h) was 0 mm^3. For the same molecule, the “D^∗” value [5, 7] was 3.38 ×10^-4/mm^2·s^-1, the “k'” value [5, 7] was 0.76 ×^10-4/mM· L^-1· s^-1 and the “D^∗” value [5, 8] was 2.31 ×10^-4/mm^2·s^-1. The “k'” value [5, 8] was 2.38 ×^10-4/mM· L^-1· s^-1, the “D^∗” value [5, 9] was 3.25 ×10^-4/mm^2·s^-1 and the “k'” value [5, 9] was 1.55 ×^10-4/mM· L^-1· s^-1. The “D^∗” value [5, 10] was 2.06 ×10^-4/mm^2·s^-1, the “k'” value [5, 10] was 8.28 ×^10-4/mM· L^-1· s^-1 and the “D^∗” value [5, 11] was 3.28 ×10^-4/mm^2·s^-1. For the same molecule, the “k'” value [5, 11] was 1.44 ×^10-4/mM· L^-1· s^-1, the “D^∗” value [5, 12] was 3.57 ± 0.88 ×10^-4/mm^2·s^-1 and the “k'” value [5, 12] was 7.14 ± 3.06 ×10^-5/mM·L^-1·s^-1. For the same molecule, the “D^∗” value [5, 13] was 3.05 ± 0.93 ×10^-4/mm^2·s^-1, the “k'” value [5, 13] was 7.59 ± 4.04 ×10^-5/mM·L^-1·s^-1 and the “D^∗” value [5, 14] was 4.01 ± 0.60 ×10^-4/mm^2·s^-1. The “k'” value [5, 14] was 7.88 ± 6.24 ×10^-5/mM·L^-1·s^-1, the “D^∗” value [5, 15] was 3.73 ± 1.10 ×10^-4/mm^2·s^-1 and the “k'” value [5, 15] was 7.67 ± 3.96 ×10^-5/mM·L^-1·s^-1. The “D^∗” value [5, 16] was 2.54 ± 1.27 ×10^-4/mm^2·s^-1, the “k'” value [5, 16] was 7.74 ± 4.07 ×10^-5/mM·L^-1·s^-1 and the λ ([5]; SD rat brain, caudate putamen (CPu)) was 1.24. For the same molecule, the λ ([5]; SD rat brain, medial prefrontal cortex (mPFC)) was 1.50, the λ ([5]; SD rat brain, occipital cortex (Oc)) was 1.26 and the λ ([5]; SD rat brain, substantianigra (SN)) was 1.59. For the same molecule, the λ ([5]; SD rat brain, thalamus (T)) was 1.26, the “D^∗” value ([6]; direction -X) was 2.611 ×10^-4/mm^2·s^-1 and the “k'” value ([6]; direction -X) was 2.359 ×10^-4/mM·L^-1·s^-1. For the same molecule, the “D^∗” value ([6]; direction -Y) was 8.235 ×10^-4/mm^2·s^-1, the “k'” value ([6]; direction -Y) was 10.940 ×10^-4/mM·L^-1·s^-1 and the “D^∗” value ([6]; direction -Z) was 7.154 ×10^-4/mm^2·s^-1. The “k'” value ([6]; direction -Z) was 5.083 ×10^-4/mM·L^-1·s^-1, the “D^∗” value ([6]; direction X) was 2.930 ×10^-4/mm^2·s^-1 and the “k'” value ([6]; direction X) was 2.870 ×10^-4/mM·L^-1·s^-1. For the same molecule, the “D^∗” value ([6]; direction Z) was 9.537 ×10^-4/mm^2·s^-1 and the “k'” value ([6]; direction Z) was 7.817 ×10^-4/mM·L^-1·s^-1.
